Target: human chemokine receptor CXCR7 (Homo sapiens (Human), UniProt P25106)
Experiment: Tango CXCR7-bla U2OS beta-arrestin recruitment assay (beta-lactamase reporter, FRET), antagonism of CXCL12/SDF1-α;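 further: compounds preincubated 15 min before CXCL12 addition, then 22 h at 37 °C, FRET emission ratio read with CCF4-AM substrate after 2 h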
Type: cell-based
Conditions: antagonistic effect on CXCR7; Tango CXCR7-bla U2OS cells, CXCL12/SDF1-α at its EC80

Chain of human chemokine receptor CXCR7 (P25106 whole entry): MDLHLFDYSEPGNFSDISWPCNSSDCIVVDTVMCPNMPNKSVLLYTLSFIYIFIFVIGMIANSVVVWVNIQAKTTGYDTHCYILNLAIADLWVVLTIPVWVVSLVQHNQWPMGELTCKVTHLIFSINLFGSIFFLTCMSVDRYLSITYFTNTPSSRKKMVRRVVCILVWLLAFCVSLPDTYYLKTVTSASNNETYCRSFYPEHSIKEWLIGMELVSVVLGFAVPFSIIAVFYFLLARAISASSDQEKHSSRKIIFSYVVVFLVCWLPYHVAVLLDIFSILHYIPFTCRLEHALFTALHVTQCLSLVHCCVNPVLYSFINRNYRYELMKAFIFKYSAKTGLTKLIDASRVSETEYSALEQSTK

**Q.** `CN(C)CCN(C)C(=O)[C@@H]1CN(C2CCCCC2)CC[C@H]1NC(=O)c1cc(-c2ccc(F)cc2F)on1` (racemic) [Example 1.018, rac-(3R*,4R*)-1-Cyclohexyl-4-{[5-(2,4-difluoro-phenyl)-isoxazole-3-carbonyl]-amino}-piperidine-3-carboxylic acid (2-dimethylamino-ethyl)-methyl-amide] was tested. Which IC50 did it give?
**A.** The IC50 was 317 nM.

**Q.** Which IC50 does the source give for `O=C(N[C@H]1CCN(CC2CC2)C[C@@H]1C(=O)NC1(c2nccc[n+]2[O-])CC1)c1cc(-c2ccc(F)cc2F)on1` [Example 4.077] here?
**A.** Its IC50 is 4 nM.

**Q.** For `O=C(N[C@@H]1CCN(C2CCCCC2)C[C@H]1C(=O)NCc1ncccn1)c1cc(-c2ccc(F)cc2F)on1` (racemic) [Example 1.032, rac-(3R*,4R*)-1-Cyclohexyl-4-{[5-(2,4-difluoro-phenyl)-isoxazole-3-carbonyl]-amino}-piperidine-3-carboxylic acid (pyrimidin-2-ylmethyl)-amide], which IC50 is on record?
**A.** Its IC50 is 154 nM.

**Q.** With `CN(C)C(=O)[C@@H]1CN(C2CCCCC2)CC[C@H]1NC(=O)c1noc(-c2ccc(F)cc2F)n1` (racemic) [Example 3.007, rac-(3R*,4R*)-1-Cyclohexyl-4-{[5-(2-difluoro-phenyl)-[1,2,4]oxadiazole-3-carbonyl]-amino}-piperidine-3-carboxylic acid dimethylamide] as the molecule, how does the IC50 read?
**A.** Its IC50 is 162 nM.

**Q.** How did the IC50 turn out when `O=C(N[C@H]1CCN(CC2CCCC2)C[C@@H]1C(=O)NC1(c2ncccn2)CC1)c1cc(-c2ccc(F)cc2F)on1` [Example 2.065] was run?
**A.** The IC50 was 1 nM.

**Q.** For `CN(C)C(=O)[C@@H]1CN(C2CCCCC2)CC[C@H]1NC(=O)c1cn(-c2ccc(F)cc2F)nn1` (single isomer, unassigned) [Example 1.095a, (3R,4R)-1-Cyclohexyl-4-{[1-(2,4-difluoro-phenyl)-1H-[1,2,3]triazole-4-carbonyl]-amino}-piperidine-3-carboxylic acid dimethylamide or (3S,4S)-1-Cyclohexyl-4-{[1-(2,4-difluoro-phenyl)-1H-[1,2,3]triazole-4-carbonyl]-amino}-piperidine-3-carboxylic acid dimethylamide], which IC50 is on record?
**A.** The IC50 was 129 nM.

**Q.** Which IC50 does the source give for `COCC(C)(C)NC(=O)[C@@H]1CN(C2CCCC2)CC[C@H]1NC(=O)c1cc(-c2ccc(F)cc2F)no1` (racemic) [Example 1.116, rac-(3R*,4R*)-1-Cyclopentyl-4-{[3-(2,4-difluoro-phenyl)-isoxazole-5-carbonyl]-amino}-piperidine-3-carboxylic acid (2-methoxy-1,1-dimethyl-ethyl)-amide] here?
**A.** Its IC50 is 614 nM.

**Q.** Which IC50 does the source give for `COCC(C)(C)NC(=O)[C@H]1CN(C2CCCCC2)CC[C@@H]1NC(=O)c1cc(-c2ccc(F)cc2F)on1` [Example 4.002] here?
**A.** The IC50 was 60 nM.

**Q.** With `O=C(N[C@H]1CCN(CC2CC2)C[C@@H]1C(=O)N(CCF)Cc1ccccc1)c1cc(-c2ccc(F)cc2F)on1` [Example 4.058] as the molecule, how does the IC50 read?
**A.** Its IC50 is 90 nM.

**Q.** Which IC50 does the source give for `O=C(N[C@H]1CCN(CC2CC2)C[C@@H]1C(=O)NC1(c2ncccn2)CC1)c1cn(-c2ccc(F)cc2F)nn1` [Example 7.004, (3S,4S)-1-Cyclopropylmethyl-4-{[1-(2,4-difluoro-phenyl)-1H-[1,2,3]triazole-4-carbonyl]-amino}-piperidine-3-carboxylic acid (1-pyrimidin-2-yl-cyclopropyl)-amide] here?
**A.** The IC50 was 64 nM.

**Q.** `O=C(N[C@H]1CCN(CC2CC2)C[C@@H]1C(=O)NC1(c2ncccn2)CC1)c1cc(-c2ccc(F)cc2F)no1` [Example 7.006, (3S,4S)-1-Cyclopropylmethyl-4-{[3-(2,4-difluoro-phenyl)-isoxazole-5-carbonyl]-amino}-piperidine-3-carboxylic acid (1-pyrimidin-2-yl-cyclopropyl)-amide] was tested. Which IC50 did it give?
**A.** Its IC50 is 8 nM.

**Q.** `CN(C)C(=O)[C@@H]1CN(Cc2ccccc2F)CC[C@H]1NC(=O)c1cc(-c2ccc(F)cc2F)on1` [Example 2.083] was tested. Which IC50 did it give?
**A.** The IC50 was 777 nM.

**Q.** Which IC50 does the source give for `O=C(N[C@H]1CCN(CC2CC2)C[C@@H]1C(=O)NC1(c2cccc[n+]2[O-])CC1)c1cc(-c2ccc(F)cc2F)on1` [Example 2.061] here?
**A.** The IC50 was 41 nM.

**Q.** Which IC50 does the source give for `C[C@@H]1CCC[C@H]1N1CC[C@@H](NC(=O)c2cc(-c3ccc(F)cc3F)on2)[C@H](C(=O)N(C)C)C1` [Example 2.023b] here?
**A.** Its IC50 is 26 nM.

**Q.** How did the IC50 turn out when `C[C@@H](NC(=O)[C@@H]1CN(C2CCCCC2)CC[C@H]1NC(=O)c1cn(-c2ccc(F)cc2F)nn1)C1CCC1` (relative stereo) [Example 1.134, (3R*,4R*)-1-Cyclohexyl-4-{[1-(2,4-difluoro-phenyl)-1H-[1,2,3]triazole-4-carbonyl]-amino}-piperidine-3-carboxylic acid ((R)-1-cyclobutyl-ethyl)-amide] was run?
**A.** Its IC50 is 266 nM.

**Q.** How did the IC50 turn out when `O=C(N[C@H]1CCN(CC2CC2)C[C@@H]1C(=O)NC1(c2ncccn2)CC1)c1ncc(-c2ccc(F)cc2)o1` [Example 7.007, (3S,4S)-1-Cyclopropylmethyl-4-{[5-(4-fluoro-phenyl)-oxazole-2-carbonyl]-amino}-piperidine-3-carboxylic acid (1-pyrimidin-2-yl-cyclopropyl)-amide] was run?
**A.** The IC50 was 140 nM.

**Q.** For `O=C(N[C@H]1CCN(CC2CC2)C[C@@H]1C(=O)NC1(c2ccccn2)CC1)c1cc(-c2ccc(F)cc2F)on1` [Example 4.031], which IC50 is on record?
**A.** Its IC50 is 4 nM.

**Q.** Which IC50 does the source give for `CC(C)(CF)NC(=O)[C@@H]1CN(C2CCCCC2)CC[C@H]1NC(=O)c1cc(-c2ccc(F)cc2F)on1` (racemic) [Example 1.079, rac-(3R*,4R*)-1-Cyclohexyl-4-{[5-(2,4-difluoro-phenyl)-isoxazole-3-carbonyl]-amino}-piperidine-3-carboxylic acid (2-fluoro-1,1-dimethyl-ethyl)-amide] here?
**A.** The IC50 was 510 nM.

**Q.** For `C[C@@H](NC(=O)[C@H]1CN(C2CCCC2)CC[C@@H]1NC(=O)c1cn(-c2ccc(F)cc2F)nn1)c1ccccn1` (single isomer, unassigned) [Example 1.118a, (3S,4S)-1-Cyclopentyl-4-{[1-(2,4-difluoro-phenyl)-1H-[1,2,3]triazole-4-carbonyl]-amino}-piperidine-3-carboxylic acid ((R)-1-pyridin-2-yl-ethyl)-amide or (3R,4R)-1-Cyclopentyl-4-{[1-(2,4-difluoro-phenyl)-1H-[1,2,3]triazole-4-carbonyl]-amino}-piperidine-3-carboxylic acid ((R)-1-pyridin-2-yl-ethyl)-amide], which IC50 is on record?
**A.** Its IC50 is 75 nM.

**Q.** Which IC50 does the source give for `CN(C)C(=O)[C@@H]1CN(C2CCC2)CC[C@H]1NC(=O)c1cc(-c2ccc(F)cc2F)on1` [Example 2.028] here?
**A.** The IC50 was 60 nM.

**Q.** With `COCC(C)(C)NC(=O)[C@@H]1CN(C2CCCCC2)CC[C@H]1NC(=O)c1cc(-c2ccc(F)cc2F)no1` (racemic) [Example 1.115, rac-(3R*,4R*)-1-Cyclohexyl-4-{[3-(2,4-difluoro-phenyl)-isoxazole-5-carbonyl]-amino}-piperidine-3-carboxylic acid (2-methoxy-1,1-dimethyl-ethyl)-amide] as the molecule, how does the IC50 read?
**A.** Its IC50 is 566 nM.

**Q.** `O=C(N[C@H]1CCN(CC2CC2)C[C@@H]1C(=O)NC1(c2ncccn2)CC1)c1cc(-c2ccc(F)cc2F)sn1` [Example 7.015, (3S,4S)-1-Cyclopropylmethyl-4-{[5-(2,4-difluoro-phenyl)-isothiazole-3-carbonyl]-amino}-piperidine-3-carboxylic acid (1-pyrimidin-2-yl-cyclopropyl)-amide] was tested. Which IC50 did it give?
**A.** The IC50 was 201 nM.

**Q.** Which IC50 does the source give for `CCN(CC)C(=O)[C@@H]1CN(CC2CC2)CC[C@H]1NC(=O)c1cc(-c2ccc(F)cc2F)on1` [Example 4.071] here?
**A.** The IC50 was 212 nM.

**Q.** How did the IC50 turn out when `CN(C)C(=O)[C@@H]1CN([C@@H]2CCCC[C@H]2O)CC[C@H]1NC(=O)c1cc(-c2ccc(F)cc2F)on1` [Example 2.048] was run?
**A.** The IC50 was 501 nM.

**Q.** With `O=C(N[C@@H]1CCN(CC2CC2)C[C@H]1C(=O)NC1(c2ncccn2)CC1)c1noc(-c2ccc(F)cc2F)c1F` (racemic) [Example 3.022, rac-(3R*,4R*)-1-Cyclopropylmethyl-4-{[5-(2,4-difluoro-phenyl)-4-fluoro-isoxazole-3-carbonyl]-amino}-piperidine-3-carboxylic acid (1-pyrimidin-2-yl-cyclopropyl)-amide] as the molecule, how does the IC50 read?
**A.** The IC50 was 28 nM.

**Q.** `O=C(N[C@@H]1CCN(CC2CC2)C[C@H]1C(=O)NC1(c2ncccn2)CC1)c1cc(-c2cccc(C(F)(F)F)c2)on1` (racemic) [Example 1.193, rac-(3R*,4R*)-1-Cyclopropylmethyl-4-{[5-(3-trifluoromethyl-phenyl)-isoxazole-3-carbonyl]-amino}-piperidine-3-carboxylic acid (1-pyrimidin-2-yl-cyclopropyl)-amide] was tested. Which IC50 did it give?
**A.** Its IC50 is 191 nM.

**Q.** How did the IC50 turn out when `O=C(N[C@H]1CCN(C2CCC2)C[C@@H]1C(=O)NC1(c2cccc[n+]2[O-])CC1)c1cc(-c2ccc(F)cc2F)on1` [Example 2.063] was run?
**A.** The IC50 was 219 nM.

**Q.** For `O=C(N[C@H]1CCN(CC2CC2)C[C@@H]1C(=O)NC1(c2ccccc2F)CC1)c1cc(-c2ccc(F)cc2F)on1` [Example 4.061], which IC50 is on record?
**A.** Its IC50 is 1 nM.

**Q.** For `C[C@@H](NC(=O)[C@]1(C)CN(C2CCCCC2)CC[C@H]1NC(=O)c1cc(-c2ccc(F)cc2F)on1)c1ccccn1` (relative stereo) [Example 5.001, (3R*,4R*)-1-Cyclohexyl-4-{[5-(2,4-difluoro-phenyl)-isoxazole-3-carbonyl]-amino}-3-methyl-piperidine-3-carboxylic Acid ((R)-1-pyridin-2-yl-ethyl)-amide], which IC50 is on record?
**A.** The IC50 was 368 nM.

**Q.** `O=C(N[C@@H]1CCN(C2CCCCC2)C[C@H]1C(=O)N1CCC(O)C1)c1cc(-c2ccc(F)cc2F)on1` (relative stereo) [Example 1.028, 5-(2,4-Difluoro-phenyl)-isoxazole-3-carboxylic acid [(3R*,4R*)-1-cyclohexyl-3-((3RS)-3-hydroxy-pyrrolidine-1-carbonyl)-piperidin-4-yl]-amide] was tested. Which IC50 did it give?
**A.** The IC50 was 916 nM.

**Q.** `C[C@@H](NC(=O)[C@@H]1CN(CC2CC2)CC[C@H]1NC(=O)c1cc(-c2ccc(F)cc2F)no1)c1ccccn1` (relative stereo) [Example 1.154, (3R*,4R*)-1-Cyclopropylmethyl-4-{[3-(2,4-difluoro-phenyl)-isoxazole-5-carbonyl]-amino}-piperidine-3-carboxylic acid ((R)-1-pyridin-2-yl-ethyl)-amide] was tested. Which IC50 did it give?
**A.** The IC50 was 54 nM.

**Q.** `CCN(C)C(=O)[C@@H]1CN(C2CCCC2)CC[C@H]1NC(=O)c1cc(-c2ccc(F)cc2F)on1` [Example 2.076] was tested. Which IC50 did it give?
**A.** Its IC50 is 71 nM.

Source: US11306078B2, “Piperidine CXCR7 receptor modulators” (IDORSIA PHARMACEUTICALS LTD., priority 2016, dated 2022)
